Measured values as given in US20230192705A1, “SHP2 INHIBITORS, COMPOSITIONS AND USES THEREOF” (Betta Pharmaceuticals Co., Ltd, priority 2020, published 2023).

biological target: T1, SHP2 (Homo sapiens, UniProt Q06124); assay: SHP2 allosteric inhibitor enzyme activity assay (DiFMUP fluorescence); format: biochemical; conditions: class symbols
T1 sequence (Q06124 1-593): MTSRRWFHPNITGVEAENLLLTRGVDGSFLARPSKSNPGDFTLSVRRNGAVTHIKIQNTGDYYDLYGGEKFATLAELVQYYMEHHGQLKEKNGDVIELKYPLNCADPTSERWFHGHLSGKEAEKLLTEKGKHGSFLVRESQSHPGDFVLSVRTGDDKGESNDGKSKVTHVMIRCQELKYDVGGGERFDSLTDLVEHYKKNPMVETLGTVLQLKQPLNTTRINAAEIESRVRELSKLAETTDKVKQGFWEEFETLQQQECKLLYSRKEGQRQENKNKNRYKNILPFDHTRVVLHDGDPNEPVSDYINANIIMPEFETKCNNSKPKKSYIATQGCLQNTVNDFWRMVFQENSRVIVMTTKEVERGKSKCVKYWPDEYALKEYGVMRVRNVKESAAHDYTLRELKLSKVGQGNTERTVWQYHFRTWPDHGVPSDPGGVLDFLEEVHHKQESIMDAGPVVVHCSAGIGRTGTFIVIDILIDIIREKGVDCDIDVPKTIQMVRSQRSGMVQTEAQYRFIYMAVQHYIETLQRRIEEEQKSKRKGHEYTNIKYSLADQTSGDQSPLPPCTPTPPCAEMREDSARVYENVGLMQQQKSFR
Source text: SHP2 is activated by the binding of a bis-tyrosyl-phosphorylated peptide to its Src homologous 2 (SH2) domain. This subsequent activation step leads to the release of the automatic inhibition interface of SHP2, which in turn activates the SHP2 protein tyrosine phosphatase (PTP) and can be used for substrate recognition and reaction catalysis. The catalytic activity of SHP2 was monitored using the alternative DiFMUP in a rapid fluorescence assay format.
Assay procedures are as follows:
(1) Compound Formulation:
The compound of the present invention (10 mM stock solution) was diluted to a suitable multiple with 100% DMSO and assay buffer, and the final test concentration of the compound of the present invention was 1 μM, 0.333 μM, 0.111 μM, 0.0370 μM, 0.0124 μM, 0.00412 μM, 0.00137 μM, 0.00046 μM, 0.00015 μM, 0.00 μM;
(2) Preparation of Enzyme Reaction Working Fluid:
SHP2 enzyme activity was performed using a final reaction volume of 50 μL and the following assay buffer conditions in 96-well black polystyrene plates (flat bottom, low flange, non-bonding surface) (Perki Elmer, Cat #6005270) at room temperature: 60 mM HEPES, 75 mM NaCl, 75 mM KCl, 0.05% BRIJ-35, 1 mM EDTA, 5 mM DTT.
(3) Enzyme Catalytic Reaction and Data Monitoring:
Compounds of the present invention were added to the corresponding 96-well plates, and no compound and enzyme were provided as blank test wells. SHP2 Activating Peptide (IRS1_pY1172 (dPEG8)pY1222) was placed on ice for melting, and 0.5 μM was added per well, then 0.2 ng SHP2 protein samples were added to corresponding well plates, and incubated at room temperature for 1 hour. Substrate DiFMUP (Invitrogen, Cat #D6567) was added to the reaction at room temperature for 1 hour. Fluorescence signals were monitored using an enzyme reader (Envision, Perki Elmer) using excitation wavelengths and emission wavelengths of 340 nm and 450 nm, respectively.
Inhibition %=[1−(Conversion_sample−Conversion_min)/(Conversion_max−Conversion_min)]*100% Calculation formula: […]
where: Conversion_sample is the mean reading of the sample wells; Conversion_min is the mean reading of blank control wells, representing the reading of the wells without enzyme; Conversion_max is the mean of positive control wells, representing the reading of the wells without inhibitor.
The dose-response curve is fitted with GraphPad Prism software and IC50 was calculated by the “log[inhibitor] vs. response-variable slope” program.

| Compound | IC50 [nM] |
| --- | --- |
| Cn1ccc(C2(c3n[nH]c4nc(N5CCC6(CC5)Cc5ccccc5[C@H]6N)[nH]c(=O)c34)CC2)c(Cl)c1=O [Example 73, (S)-6-(1-amino-1,3-dihydrospiro[indene-2,4′-piperidin]-1′-yl)-3-(1-(3-chloro-1-methyl-2-oxo-1,2-dihydropyridin-4-yl)cyclopropyl)-1,5-dihydro-4H-pyrazolo[3,4-d]pyrimidin-4-one] | ≤ 20 |
| N[C@@H]1c2ccccc2CC12CCN(c1nc3[nH]nc(C4(c5cccc(OC(F)F)c5)CC4)c3c(=O)[nH]1)CC2 [Example 52, (S)-6-(1-amino-1,3-dihydrospiro[indene-2,4′-piperidin]-1′-yl)-3-(1-(3-(difluoromethoxy)plienyl)cyclo-propyl)-1,5-dihydro-4H-pyrazolo[3,4-d]pyrimidin-4-one] | ≤ 20 |
| N[C@@H]1c2ccccc2CC12CCN(c1nc3[nH]nc(C4(c5ccnc(Cl)c5)CC4)c3c(=O)[nH]1)CC2 [Example 25, (S)-6-(1-amino-1,3-dihydrospiro[indene-2,4′-piperidin]-1′-yl)-3-(1-(2-chloropyridin-4-yl)cyclopropyl)-1,5-dihydro-4H-pyrazolo[3,4-d]pyrimidin-4-one] | ≤ 20 |
| CCCCCc1cc2c(s1)CCC=C2c1n[nH]c2nc(N3CCC4(CC3)Cc3ccccc3[C@H]4N)[nH]c(=O)c12 [Example 118, (S)-6-(1-amino-1,3-dihydrospiro[indene-2,4′-piperidin]-1′-yl)-3-(2-pentyl-6,7-dihydrobenzo[b]thiophen-4-yl)-1,5-dihydro-4H-pyrazolo[3,4-d]pyrimidin-4-one] | 20 to 60 |
| CC1(C)CC(c2n[nH]c3nc(N4CCC5(CC4)Cc4ccccc4[C@H]5N)[nH]c(=O)c23)c2cccc(F)c21 (stereo partly drawn) [Example 109, 6-((S)-1-amino-1,3-dihydrospiro[indene-2,4′-piperidin]-1′-yl)-3-(4-fluoro-3,3-dimethyl-2,3-dihydro-1H-inden-1-yl)-1,5-dihydro-4H-pyrazolo[3,4-d]pyrimidin-4-one] | ≤ 20 |
| N[C@@H]1c2ccccc2CC12CCN(c1nc3[nH]nc(C4(c5ccnc(OC(F)F)c5)CC4)c3c(=O)[nH]1)CC2 [Example 53, (S)-6-(1-amino-1,3-dihydrospiro[indene-2,4′-piperidin]-1′-yl)-3-(1-(2-(difluoromethoxy)pyridin-4-yl)cyclopropyl)-1,5-dihydro-4H-pyrazolo[3,4-d]pyrimidin-4-one] | ≤ 20 |
| N[C@@H]1c2ccccc2CC12CCN(c1nc3[nH]nc(C4(c5ccnc(Cl)c5Cl)CC4)c3c(=O)[nH]1)CC2 [Example 48, (S)-6-(1-amino-1,3-dihydrospiro[indene-2,4′-piperidin]-1′-yl)-3-(1-(2,3-dichloropyridin-4-yl)cyclopropyl)-1,5-dihydro-4H-pyrazolo[3,4-d]pyrimidin-4-one] | ≤ 20 |
| N[C@@H]1c2ccccc2CC12CCN(c1nc3[nH]nc([C@H]4C[C@H]4c4ccccc4)c3c(=O)[nH]1)CC2 [Example 105, 6-((S)-1-amino-1,3-dihydrospiro[indene-2,4′-piperidin]-1′-yl)-3-((1S,2R)-2-phenylcyclopropyl)-1,5-dihydro-4H-pyrazolo[3,4-d]pyrimidin-4-one] | ≤ 20 |
| N[C@@H]1c2ccccc2CC12CCN(c1nc3[nH]nc(C4(c5cccs5)CCC4)c3c(=O)[nH]1)CC2 [Example 94, (S)-6-(1-amino-1,3-dihydrospiro[indene-2,4′-piperidin]-1′-yl)-3-(1-(thiophen-2-yl)cyclobutyl)-1,5-dihydro-4H-pyrazolo[3,4-d]pyrimidin-4-one] | ≤ 20 |
| N[C@@H]1c2ccccc2CC12CCN(c1cnc3c([C@H]4C[C@H]4c4ccccc4)n[nH]c3n1)CC2 [Example 106, (S)-1′-(3-((1S,2R)-2-phenylcyclopropyl)-1H-pyrazolo[3,4-b]pyrazin-6-yl)-1,3-dihydrospiro[indene-2,4′-piperidin]-1-amine] | ≤ 20 |

Next, values leading:

| IC50 [nM] | Compound |
| --- | --- |
| ≤ 20 | Cn1ccc2c1CCC=C2c1n[nH]c2nc(N3CCC4(CC3)Cc3ccccc3[C@H]4N)[nH]c(=O)c12 [Example 120, (S)-6-(1-amino-1,3-dihydrospiro[indene-2,4′-piperidin]-1′-yl)-3-(1-methyl-6,7-dihydro-1H-indol-4-yl)-1,5-dihydro-4H-pyrazolo[3,4-d]pyrimidin-4-one] |
| ≤ 20 | N[C@@H]1c2ccccc2CC12CCN(c1nc3[nH]nc(C4=CCOc5ccc(Cl)cc54)c3c(=O)[nH]1)CC2 [Example 135, (S)-6-(1-amino-1,3-dihydrospiro[indene-2,4′-piperidin]-1′-yl)-3-(6-chloro-2H-chromen-4-yl)-1,5-dihydro-4H-pyrazolo[3,4-d]pyrimidin-4-one] |
| > 60 | C[C@@H]1OCC2(CCN(c3nc4[nH]nc(C5(c6cccc(-n7cccn7)c6)CC5)c4c(=O)[nH]3)CC2)[C@@H]1N [Example 314, 3-(1-(3-(1H-pyrazol-1-yl)phenyl)cyclopropyl)-6-((3S,4S)-4-amino-3-methyl-2-oxa-8-azaspiro[4.5]decan-8-yl)-1,5-dihydro-4H-pyrazolo[3,4-d]pyrimidin-4-one] |
| 20 to 60 | Cc1ccc(C2(c3n[nH]c4nc(N5CCC6(CC5)CO[C@@H](C)[C@H]6N)[nH]c(=O)c34)CC2)cc1 [Example 300, 6-((3S,4S)-4-amino-3-methyl-2-oxa-8-azaspiro[4.5]decan-8-yl)-3-(1-(p-tolyl)cyclopropyl)-1,5-dihydro-4H-pyrazolo[3,4-d]pyrimidin-4-one] |
| 20 to 60 | C[C@@H]1CCC2(CCN(c3nc4[nH]nc(C5(c6ccccc6)CC5)c4c(=O)[nH]3)CC2)[C@@H]1N [Example 320, 6-((1R,2R)-1-amino-2-methyl-8-azaspiro[4.5]decan-8-yl)-3-(1-phenylcyclopropyl)-1,5-dihydro-4H-pyrazolo[3,4-d]pyrimidin-4-one] |
| ≤ 20 | N[C@@H]1c2ccccc2CC12CCN(c1nc3[nH]nc(C4(c5ccc(Cl)cc5Cl)CC4)c3c(=O)[nH]1)CC2 [Example 235, (S)-6-(1-amino-1,3-dihydrospiro[indene-2,4′-piperidin]-1′-yl)-3-(1-(2,4-dichlorophenyl)cyclopropyl)-1,5-dihydro-4H-pyrazolo[3,4-d]pyrimidin-4-one] |
| ≤ 20 | N[C@@H]1c2ccccc2CC12CCN(c1nc3[nH]nc(C4(c5ccccc5F)CC4)c3c(=O)[nH]1)CC2 [Example 220, (S)-6-(1-amino-1,3-dihydrospiro[indene-2,4′-piperidin]-1′-yl)-3-(1-(2-fluorophenyl)cyclopropyl)-1,5-dihydro-4H-pyrazolo[3,4-d]pyrimidin-4-one] |
| > 60 | Cc1cccc(C2(c3n[nH]c4nc(N5CCC6(CC5)CO[C@@H](C)[C@H]6N)[nH]c(=O)c34)CC2)n1 [Example 319, 6-((3S,4S)-4-amino-3-methyl-2-oxa-8-azaspiro[4.5]decan-8-yl)-3-(1-(6-methylpyridin-2-yl)cyclopropyl)-1,5-dihydro-4H-pyrazolo[3,4-d]pyrimidin-4-one] |
| ≤ 20 | CP(C)(=O)c1cccc(C2(c3n[nH]c4nc(N5CCC6(CC5)Cc5ccccc5[C@H]6N)[nH]c(=O)c34)CC2)c1 [Example 224, (S)-6-(1-amino-1,3-dihydrospiro[indene-2,4′-piperidin]-1′-yl)-3-(1-(3-(dimethylphosphoryl)phenyl)cyclo-propyl)-1,5-dihydro-4H-pyrazolo[3,4-d]pyrimidin-4-one] |
